Our source for the inhibition values is US8518973B2, “Compounds having 4-pyridylalkylthio group as a substituent” (Santen Pharmaceutical Co., Ltd., priority 2003, dated 2013).

In the assay the test system is VEGF-induced HUVEC growth. Nature of the assay: VEGF-induced HUVEC growth reaction evaluation system (cell growth inhibitory action test). The format is cell-based. Particulars: Homo sapiens, 72 h, 20 μg/ml test compound solution added 5 μl per well (100 μl), VEGF solution 400 ng/ml 5 μl per well, three days, absorbance at 450 nm, read-out: Cell growth inhibition rate (%). As to the method:
Cell growth inhibitory action tests were carried out using a VEGF-induced HUVEC growth reaction evaluation system (HUVEC stands for human umbilical vein endothelial cells), which is one of widely-used methods of evaluating in vitro angiogenesis inhibitory effects of drugs.
As one of widely-used methods of evaluating angiogenesis inhibitory effects of drugs, a cell growth inhibitory action test using a VEGF-induced HUVEC growth reaction evaluation system was reported in Cancer Res., 59, 99-106(1999). According to the method described in the above-mentioned literature, cell growth inhibitory action tests of the present compounds were carried out, their cell growth inhibition rates were calculated, and angiogenesis inhibitory effects of the present compounds were evaluated using the obtained rates as indexes.
Each test compound was dissolved in dimethyl sulfoxide (hereinafter abbreviated as “DMSO”), and the obtained solution was diluted with commercially available phosphoric acid buffer solution (hereinafter abbreviated as “PBS”) to prepare a 20 μg/ml test compound solution.
HUVEC was suspended in a 0.5% fetal bovine serum (hereinafter abbreviated as “FBS”)-containing F12K medium to prepare a 2×10^4 cells/ml HUVEC suspension.
VEGF was dissolved in 0.1% bovine serum albumin-containing PBS, and the obtained solution was diluted with the 0.5% FBS-containing F12K medium to prepare a 400 ng/ml VEGF solution.
• 1) The HUVEC suspension was inoculated in each amount of 100 μl into each well of a 96-well plate coated with I type collagen (2×10^3 cells per well). • 2) One day after inoculation, the test compound solution was added in an amount of 5 μl per well. • 3) One hour after adding the test compound solution, the VEGF solution was added in an amount of 5 μl per well. • 4) Three days after adding the VEGF solution, cell counting kit-8(Dojin Chemical Co., Ltd.) was added in an amount of 10 μl per well. • 5) After three hours, the above-mentioned plate was attached to an absorptiometer (multi label counter ARVO), and absorbance at 450 nm of each well suspension (hereinafter referred to as “test compound suspension”) was measured. • 6) A test was carried out in the same manner as in 1) to 5) except that 1.0% DMSO was used instead of the test compound solution.
Incubation was carried out under conditions of 37° C., 5% carbon dioxide and 95% air in an incubator throughout the above-mentioned test steps.
Cell growth inhibition rates, which are indexes of angiogenesis inhibitory effects, were calculated by the following calculation equation.
For `CN(C)c1ccc(NC(=O)c2ccccc2SCc2ccncc2)cc1` [1-91, N-(4-Dimethylaminophenyl)-2-(4-pyridylmethylthio)benzamide], the inhibition (usually the change of the read-out against control, counted positive when it falls) at 20 µg/mL (stock) turned out to be 100%. To `Cc1cc(C)cc(NC(=O)c2cccnc2SCc2ccnc(C#N)c2)c1` [1-236, 2-(2-Cyanopyridin-4-ylmethylthio)-N-(3,5-dimethylphenyl)pyridine-3-carboxamide] belongs 100%; to `CC(C)Oc1ccc(NC(=O)c2sccc2SCc2ccncc2)cc1` [1-246, N-(4-Isopropoxyphenyl)-3-(4-pyridylmethylthio)thiophene-2-carboxamide], 76%.

In the case of `Cc1cc(C)cc(NC(=O)c2cccnc2SCc2ccnc(C(N)=O)c2)c1` [8-1, 2-(2-Carbamoylpyridin-4-ylmethylthio)-N-(3,5-dimethylphenyl)pyridine-3-carboxamide], the inhibition at 20 µg/mL (stock) worked out at 100%.

Turning to `Cc1cc(C)cc(NC(=O)c2cccnc2SCc2ccnc(C)c2)c1` [1-307, N-(3,5-Dimethylphenyl)-2-(2-methylpyridin-4-ylmethylthio)pyridine-3-carboxamide], the inhibition at 20 µg/mL (stock) worked out at 100%. To `Cc1ccc(NC(=O)c2cccnc2SCc2cc[n+]([O-])cc2)cc1C` [4-5, N-(3,4-Dimethylphenyl)-2-(1-oxopyridin-4-ylmethylthio)pyridine-3-carboxamide] belongs 100%; to `Cc1cc(C)cc(NC(=O)c2cccnc2SCc2ccnc(F)c2)c1` [1-213, N-(3,5-Dimethylphenyl)-2-(2-fluoropyridin-4-ylmethylthio)pyridine-3-carboxamide], 100%. As for `O=C(Nc1ccc(F)c(F)c1)c1sccc1SCc1ccncc1` [1-269, N-(3,4-Difluorophenyl)-3-(4-pyridylmethylthio)thiophene-2-carboxamide], the inhibition at 20 µg/mL (stock) turned out to be 53%. For the compound `O=C(Nc1ccc(OC(F)(F)F)cc1)c1sccc1SCc1ccncc1` [1-273, 3-(4-Pyridylmethylthio)-N-(4-trifluoromethoxyphenyl)thiophene-2-carboxamide], the inhibition at 20 µg/mL (stock) is 100%. On to `O=C(Nc1cccc(Cl)c1)c1ccccc1SCc1ccncc1` [1-90, N-(3-Chlorophenyl)-2-(4-pyridylmethylthio)benzamide], for which the inhibition at 20 µg/mL (stock) came out at 100%. For the compound `O=C(Nc1ccc(OC(F)(F)F)cc1)c1cccnc1SCc1ccnc(Cl)c1` [1-227, 2-(2-Chloropyridin-4-ylmethylthio)-N-(4-trifluoromethoxyphenyl)pyridine-3-carboxamide], the inhibition at 20 µg/mL (stock) came out at 60%. `O=C(Nc1ccc(C(F)(F)F)cc1)c1sccc1SCc1ccncc1` [1-255, 3-(4-Pyridylmethylthio)-N-(4-trifluoromethylphenyl)thiophene-2-carboxamide]: the inhibition at 20 µg/mL (stock) came out at 85%.

Consider `O=C(Nc1ccc(F)cc1F)c1cccnc1SCc1ccncc1` [1-70, N-(2,4-Difluorophenyl)-2-(4-pyridylmethylthio)pyridine-3-carboxamide], for which the inhibition at 20 µg/mL (stock) was determined as 58%.

With `Cc1cc(NC(=O)c2ccsc2SCc2ccncc2)ccc1Br` [1-289, N-(4-Bromo-3-methylphenyl)-2-(4-pyridylmethylthio)thiophene-3-carboxamide], the inhibition at 20 µg/mL (stock) was 100%. Turning to `O=C(Nc1ccc2c(c1)CCC2)c1cccnc1SCc1ccnc(F)c1` [1-215, 2-(2-Fluoropyridin-4-ylmethylthio)-N-(5-indanyl)pyridine-3-carboxamide], the inhibition at 20 µg/mL (stock) was found to be 100%. In the case of `O=C(Nc1ccc(OC(F)(F)F)cc1)c1cccnc1SCc1ccnc(F)c1` [1-214, 2-(2-Fluoropyridin-4-ylmethylthio)-N-(4-trifluoromethoxyphenyl)pyridine-3-carboxamide], the inhibition at 20 µg/mL (stock) stood at 92%. Consider `CCCNC(=O)c1cc(CSc2ncccc2C(=O)Nc2cc(C)cc(C)c2)ccn1` [7-1, N-(3,5-Dimethylphenyl)-2(2-n-propylaminocarbonylpyridin-4-yl-methylthio)pyridine 3 carboxamide], for which the inhibition at 20 µg/mL (stock) was 100%. `Cc1cccc(NC(=O)c2ccsc2SCc2ccncc2)c1` [1-285, N-(3-Methylphenyl)-2-(4-pyridylmethylthio)thiophene-3-carboxamide]: the inhibition at 20 µg/mL (stock) came to 100%. On to `Cc1cc(NC(=O)c2cccnc2SCc2ccncc2)ccc1Cl` [1-79, N-(4-Chloro-3-methylphenyl)-2-(4-pyridylmethylthio)pyridine-3-carboxamide], for which the inhibition at 20 µg/mL (stock) is 100%. As to `CCCc1ccc(NC(=O)c2sccc2SCc2ccncc2)cc1` [1-270, N-(4-n-Propylphenyl)-3-(4-pyridylmethylthio)thiophene-2-carboxamide], the inhibition at 20 µg/mL (stock) is 99%.

As to `Cc1cccc(NC(=O)c2sccc2SCc2ccncc2)c1` [1-263, N-(3-Methylphenyl)-3-(4-pyridylmethylthio)thiophene-2-carboxamide], the inhibition at 20 µg/mL (stock) was 100%. To `COc1ccc(NC(=O)c2cccnc2SCc2ccncc2)cc1OC` [1-72, N-(3,4-Dimethoxyphenyl)-2-(4-pyridylmethylthio)pyridine-3-carboxamide] belongs 100%; to `O=C(Nc1ccc2c(c1)CCC2)c1ccsc1SCc1ccncc1` [1-287, N-(5-Indanyl)-2-(4-pyridylmethylthio)thiophene-3-carboxamide], 95%; to `Cc1cccc(NC(=O)c2cscc2SCc2ccncc2)c1` [1-292, N-(3-Methylphenyl) 4 (4-pyridylmethylthio)thiophene-3 carboxamide], 100%. In the case of `O=C(Nc1cc2ccccc2cn1)c1ccccc1SCc1ccncc1` [1-209, N-(3-Isoquinolyl)-2-(4-pyridylmethylthio)benzamide], the inhibition at 20 µg/mL (stock) stood at 99%. With `COc1cc(OC)c(NC(=O)c2cccnc2SCc2ccncc2)cc1Cl` [1-85, N-(5-Chloro-2,4-dimethoxyphenyl)-2-(4-pyridylmethylthio)pyridine-3-carboxamide], the inhibition at 20 µg/mL (stock) was determined as 95%.

As for `CC(C)Oc1ccc(NC(=O)c2cccnc2SCc2ccncc2)cc1` [1-55, N-(4-Isopropoxyphenyl)-2-(4-pyridylmethylthio)pyridine-3-carboxamide], the inhibition at 20 µg/mL (stock) stood at 100%.

`O=C(Nc1ccc2c(c1)CCC2)c1sccc1SCc1ccncc1` [1-283, N-(5-Indanyl)-3-(4-pyridylmethylthio)thiophene-2-carboxamide]: the inhibition at 20 µg/mL (stock) amounted to 100%. As to `CC(C)(C)c1ccc(NC(=O)c2cccnc2SCc2cc[n+]([O-])cc2)cc1` [4-10, N-(4-tert-Butylphenyl)-2-(1-oxopyridin-4-ylmethylthio)pyridine-3-carboxamide], the inhibition at 20 µg/mL (stock) was 100%. Turning to `Cc1cc(C)cc(NC(=O)c2sccc2SCc2ccnc(Cl)c2)c1` [1-251, 3-(2-Chloropyridin-4-ylmethylthio)-N-(3,5-dimethylphenyl)thiophene-2-carboxamide], the inhibition at 20 µg/mL (stock) was determined as 77%. To `CCCCc1ccc(NC(=O)c2cccnc2SCc2ccncc2)cc1` [1-50, N-(4-n-Butylphenyl)-2-(4-pyridylmethylthio)pyridine-3-carboxamide] belongs 94%; to `Cc1cc(NC(=O)c2sccc2SCc2ccncc2)ccc1F` [1-252, N-(4-Fluoro-3-methylphenyl)-3-(4-pyridylmethylthio)thiophene-2-carboxamide], 100%.
